Reference: patent US10168342B2, “Lipid probes and uses thereof” (THE SCRIPPS RESEARCH INSTITUTE, priority 2015, dated 2019)

Columns and labels:
Assay in all cases: isoTOP-ABPP mapping of AEA-DA-modified peptides in Neuro2a cells
Assay type in all cases: cell-based
[1] = target: T1, AEA-DA-modified peptides in Neuro2a cells (Mus musculus, UniProt P97311); conditions: AEA-DA-modified peptide MCM6 P97311 59-86, SEQ ID NO 59; probe 100 μM, 12 replicates
T1 construct: endogenous in cells; host or cells: Neuro2a

[2] = target: T2, AEA-DA-modified peptides in Neuro2a cells (Mus musculus, UniProt Q9JKF7); conditions: AEA-DA-modified peptide MRPL39 Q9JKF7 154-166, SEQ ID NO 61; probe 100 μM, 12 replicates
T2 construct: endogenous in cells; host or cells: Neuro2a

[3] = target: T3, AEA-DA-modified peptides in Neuro2a cells (Mus musculus, UniProt P20029); conditions: probe 100 μM, 12 replicates
T3 construct: endogenous in cells; host or cells: Neuro2a

[4] = target: T4, AEA-DA-modified peptides in Neuro2a cells (Mus musculus, UniProt P34884); conditions: AEA-DA-modified peptide MIF P34884 13-38, SEQ ID NO 60; probe 100 μM, 12 replicates
T4 construct: endogenous in cells; host or cells: Neuro2a

[5] = target: T5, AEA-DA-modified peptides in Neuro2a cells (Mus musculus, UniProt Q62351); conditions: AEA-DA-modified peptide TFRC Q62351 7-23, SEQ ID NO 110; probe 100 μM, 12 replicates
T5 construct: endogenous in cells; host or cells: Neuro2a

[6] = target: T6, AEA-DA-modified peptides in Neuro2a cells (Mus musculus, UniProt P42208); conditions: AEA-DA-modified peptide SEPT2 P42208 78-92, SEQ ID NO 98; probe 100 μM, 12 replicates
T6 construct: endogenous in cells; host or cells: Neuro2a

[7] = target: T7, AEA-DA-modified peptides in Neuro2a cells (Mus musculus, UniProt P14733); conditions: AEA-DA-modified peptide LMNB1 P14733 159-183, SEQ ID NO 56; probe 100 μM, 12 replicates
T7 construct: endogenous in cells; host or cells: Neuro2a

[8] = target: T8, AEA-DA-modified peptides in Neuro2a cells (Mus musculus, UniProt P61161); conditions: AEA-DA-modified peptide ACTR2 P61161 259-295, SEQ ID NO 5; probe 100 μM, 12 replicates
T8 construct: endogenous in cells; host or cells: Neuro2a

[9] = target: T9, AEA-DA-modified peptides in Neuro2a cells (Mus musculus, UniProt P48678); conditions: AEA-DA-modified peptide LMNA P48678 281-297, SEQ ID NO 55; probe 100 μM, 12 replicates
T9 construct: endogenous in cells; host or cells: Neuro2a

[10] = target: T10, AEA-DA-modified peptides in Neuro2a cells (Mus musculus, UniProt Q9DCC8); conditions: AEA-DA-modified peptide TOMM20 Q9DCC8 69-89, SEQ ID NO 115; probe 100 μM, 12 replicates
T10 construct: endogenous in cells; host or cells: Neuro2a

[11] = target: T11, AEA-DA-modified peptides in Neuro2a cells (Mus musculus, UniProt Q91V01); conditions: AEA-DA-modified peptide LPCAT3 Q91V01 18-31, SEQ ID NO 58; probe 100 μM, 12 replicates
T11 construct: endogenous in cells; host or cells: Neuro2a

[12] = target: T12, AEA-DA-modified peptides in Neuro2a cells (Mus musculus, UniProt P81117); conditions: AEA-DA-modified peptide NUCB2 P81117 60-73, SEQ ID NO 72; probe 100 μM, 12 replicates
T12 construct: endogenous in cells; host or cells: Neuro2a
T12 sequence (P81117 25-420): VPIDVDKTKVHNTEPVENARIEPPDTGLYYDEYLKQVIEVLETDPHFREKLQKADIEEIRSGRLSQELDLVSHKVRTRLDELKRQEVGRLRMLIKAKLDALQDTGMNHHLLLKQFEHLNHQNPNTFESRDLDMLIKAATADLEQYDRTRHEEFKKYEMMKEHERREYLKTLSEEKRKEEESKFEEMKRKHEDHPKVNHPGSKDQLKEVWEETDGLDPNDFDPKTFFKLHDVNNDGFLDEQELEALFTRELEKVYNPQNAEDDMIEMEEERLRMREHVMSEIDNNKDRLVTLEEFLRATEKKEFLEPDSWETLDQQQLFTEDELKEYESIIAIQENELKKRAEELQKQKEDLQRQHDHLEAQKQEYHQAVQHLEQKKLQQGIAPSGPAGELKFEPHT

T3 sequence (P20029 20-655): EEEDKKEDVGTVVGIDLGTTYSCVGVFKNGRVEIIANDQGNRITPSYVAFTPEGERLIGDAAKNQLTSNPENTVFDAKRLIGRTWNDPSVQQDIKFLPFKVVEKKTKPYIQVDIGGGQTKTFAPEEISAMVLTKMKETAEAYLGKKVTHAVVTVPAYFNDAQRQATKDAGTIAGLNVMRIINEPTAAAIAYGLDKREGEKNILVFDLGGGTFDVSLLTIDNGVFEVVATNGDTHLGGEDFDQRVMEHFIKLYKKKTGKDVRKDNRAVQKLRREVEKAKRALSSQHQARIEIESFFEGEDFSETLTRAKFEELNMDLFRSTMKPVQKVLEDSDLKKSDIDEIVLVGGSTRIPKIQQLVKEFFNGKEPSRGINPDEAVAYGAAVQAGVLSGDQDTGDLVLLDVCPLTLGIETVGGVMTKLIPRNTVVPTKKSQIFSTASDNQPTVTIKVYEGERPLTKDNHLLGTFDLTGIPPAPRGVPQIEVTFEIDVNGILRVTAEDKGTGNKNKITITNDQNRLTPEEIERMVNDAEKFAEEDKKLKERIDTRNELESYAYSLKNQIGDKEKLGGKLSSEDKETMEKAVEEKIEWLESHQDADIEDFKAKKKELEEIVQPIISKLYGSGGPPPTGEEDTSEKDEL
T11 sequence (Q91V01 whole entry): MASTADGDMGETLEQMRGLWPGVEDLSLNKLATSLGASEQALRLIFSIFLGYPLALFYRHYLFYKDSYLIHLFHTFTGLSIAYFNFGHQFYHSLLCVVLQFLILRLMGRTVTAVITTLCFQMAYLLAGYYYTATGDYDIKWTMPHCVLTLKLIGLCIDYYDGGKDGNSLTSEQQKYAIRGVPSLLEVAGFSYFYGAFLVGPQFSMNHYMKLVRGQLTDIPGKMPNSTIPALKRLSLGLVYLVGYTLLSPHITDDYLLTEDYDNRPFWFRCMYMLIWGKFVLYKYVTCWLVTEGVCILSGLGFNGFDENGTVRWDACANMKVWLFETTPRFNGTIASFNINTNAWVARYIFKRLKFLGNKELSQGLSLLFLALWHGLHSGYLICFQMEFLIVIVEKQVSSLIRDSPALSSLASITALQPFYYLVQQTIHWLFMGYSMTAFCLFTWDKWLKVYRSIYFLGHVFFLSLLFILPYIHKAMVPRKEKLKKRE
T6 sequence (P42208 whole entry): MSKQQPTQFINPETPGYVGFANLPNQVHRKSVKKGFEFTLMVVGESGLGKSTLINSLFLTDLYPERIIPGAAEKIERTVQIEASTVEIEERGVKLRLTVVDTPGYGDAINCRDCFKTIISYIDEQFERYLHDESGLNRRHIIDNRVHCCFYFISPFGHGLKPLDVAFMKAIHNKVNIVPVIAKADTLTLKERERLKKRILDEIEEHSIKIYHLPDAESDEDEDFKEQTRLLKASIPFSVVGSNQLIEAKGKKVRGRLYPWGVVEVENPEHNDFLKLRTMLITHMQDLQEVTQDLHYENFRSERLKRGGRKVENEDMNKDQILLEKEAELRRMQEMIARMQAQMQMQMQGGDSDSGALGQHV
T7 sequence (P14733 whole entry): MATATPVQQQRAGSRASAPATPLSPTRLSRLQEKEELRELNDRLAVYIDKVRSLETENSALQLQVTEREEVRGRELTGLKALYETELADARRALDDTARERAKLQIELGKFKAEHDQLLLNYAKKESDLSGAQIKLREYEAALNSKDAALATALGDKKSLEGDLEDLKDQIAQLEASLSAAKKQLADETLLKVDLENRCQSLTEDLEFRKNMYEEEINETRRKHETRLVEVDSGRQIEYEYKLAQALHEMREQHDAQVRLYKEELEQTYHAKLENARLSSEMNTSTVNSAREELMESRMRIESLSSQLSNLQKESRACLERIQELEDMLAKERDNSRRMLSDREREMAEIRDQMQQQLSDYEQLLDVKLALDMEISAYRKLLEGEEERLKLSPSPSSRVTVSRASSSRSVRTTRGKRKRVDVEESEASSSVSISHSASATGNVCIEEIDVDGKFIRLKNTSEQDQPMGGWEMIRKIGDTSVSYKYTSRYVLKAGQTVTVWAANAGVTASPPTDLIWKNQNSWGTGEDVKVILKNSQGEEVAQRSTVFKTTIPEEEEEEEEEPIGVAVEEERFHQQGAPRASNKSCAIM
T10 sequence (Q9DCC8 whole entry): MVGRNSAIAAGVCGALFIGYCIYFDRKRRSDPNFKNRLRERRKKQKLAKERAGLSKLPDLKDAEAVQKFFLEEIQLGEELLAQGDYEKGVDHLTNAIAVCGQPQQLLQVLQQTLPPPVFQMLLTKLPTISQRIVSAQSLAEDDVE
T5 sequence (Q62351 whole entry): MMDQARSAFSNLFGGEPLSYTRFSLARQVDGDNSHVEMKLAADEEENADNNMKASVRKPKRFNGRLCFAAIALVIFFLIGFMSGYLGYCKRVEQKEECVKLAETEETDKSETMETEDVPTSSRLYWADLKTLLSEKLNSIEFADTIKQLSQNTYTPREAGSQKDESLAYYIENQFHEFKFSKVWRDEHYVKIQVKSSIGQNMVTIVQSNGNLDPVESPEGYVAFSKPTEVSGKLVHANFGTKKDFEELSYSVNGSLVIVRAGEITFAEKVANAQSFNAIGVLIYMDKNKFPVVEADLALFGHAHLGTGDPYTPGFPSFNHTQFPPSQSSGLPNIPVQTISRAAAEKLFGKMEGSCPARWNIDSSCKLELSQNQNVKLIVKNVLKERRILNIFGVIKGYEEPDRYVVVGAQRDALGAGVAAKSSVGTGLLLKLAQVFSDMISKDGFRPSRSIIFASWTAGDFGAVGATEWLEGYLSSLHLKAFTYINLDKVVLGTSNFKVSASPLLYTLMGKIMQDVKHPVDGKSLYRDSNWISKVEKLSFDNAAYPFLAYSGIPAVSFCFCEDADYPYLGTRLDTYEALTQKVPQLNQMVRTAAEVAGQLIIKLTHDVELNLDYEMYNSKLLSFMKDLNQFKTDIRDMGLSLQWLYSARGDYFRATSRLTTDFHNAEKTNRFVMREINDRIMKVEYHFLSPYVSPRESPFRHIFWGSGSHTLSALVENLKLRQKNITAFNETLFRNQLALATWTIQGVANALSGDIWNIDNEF
T1 sequence (P97311 whole entry): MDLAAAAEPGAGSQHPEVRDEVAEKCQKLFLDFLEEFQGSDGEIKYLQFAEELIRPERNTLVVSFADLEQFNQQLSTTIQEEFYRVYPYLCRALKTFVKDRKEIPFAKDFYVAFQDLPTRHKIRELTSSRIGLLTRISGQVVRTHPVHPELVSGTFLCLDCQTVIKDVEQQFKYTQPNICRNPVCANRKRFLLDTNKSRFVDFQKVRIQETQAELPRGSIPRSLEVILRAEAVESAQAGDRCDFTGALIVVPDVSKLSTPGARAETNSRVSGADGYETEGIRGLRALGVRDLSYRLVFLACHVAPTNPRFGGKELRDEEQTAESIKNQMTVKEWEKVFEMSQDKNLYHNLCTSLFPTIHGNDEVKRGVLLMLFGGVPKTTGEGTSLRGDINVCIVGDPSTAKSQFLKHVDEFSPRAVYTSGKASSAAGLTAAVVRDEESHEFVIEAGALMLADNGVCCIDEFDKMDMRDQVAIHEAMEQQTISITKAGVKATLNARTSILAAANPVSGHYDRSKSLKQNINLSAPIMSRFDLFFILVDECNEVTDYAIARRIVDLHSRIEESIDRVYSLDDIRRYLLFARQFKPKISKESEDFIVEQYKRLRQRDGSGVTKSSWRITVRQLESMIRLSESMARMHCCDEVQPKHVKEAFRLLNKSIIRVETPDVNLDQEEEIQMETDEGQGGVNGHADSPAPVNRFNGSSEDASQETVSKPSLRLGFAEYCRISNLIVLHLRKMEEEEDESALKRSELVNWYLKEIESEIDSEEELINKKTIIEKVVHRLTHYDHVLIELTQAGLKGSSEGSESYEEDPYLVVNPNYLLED
T9 sequence (P48678 whole entry): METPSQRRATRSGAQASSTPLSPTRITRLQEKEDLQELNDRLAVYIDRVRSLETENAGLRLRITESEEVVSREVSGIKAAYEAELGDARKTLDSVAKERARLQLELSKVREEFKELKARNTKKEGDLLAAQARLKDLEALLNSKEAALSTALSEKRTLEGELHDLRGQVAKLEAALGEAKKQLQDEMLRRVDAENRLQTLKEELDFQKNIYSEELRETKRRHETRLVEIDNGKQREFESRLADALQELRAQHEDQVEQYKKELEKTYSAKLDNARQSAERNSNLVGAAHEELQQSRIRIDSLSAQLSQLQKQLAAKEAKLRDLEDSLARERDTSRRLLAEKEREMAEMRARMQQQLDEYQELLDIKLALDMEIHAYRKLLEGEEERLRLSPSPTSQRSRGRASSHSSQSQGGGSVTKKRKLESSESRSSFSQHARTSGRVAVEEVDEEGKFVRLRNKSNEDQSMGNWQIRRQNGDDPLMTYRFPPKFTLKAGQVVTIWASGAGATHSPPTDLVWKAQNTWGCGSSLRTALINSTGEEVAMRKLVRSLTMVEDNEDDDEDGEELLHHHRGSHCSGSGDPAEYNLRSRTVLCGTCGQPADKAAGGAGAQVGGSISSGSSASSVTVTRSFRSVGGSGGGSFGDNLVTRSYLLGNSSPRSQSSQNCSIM

For C#CCCCC1(CC/C=C\C/C=C\C/C=C\CCCC(=O)NCCO)N=N1 [AEA-DA, (5Z,8Z,11Z)-N-(2-hydroxyethyl)-14-(3-(pent-4-yn-1-yl)-3H-diazirin-3-yl)tetradeca-5,8,11-trienamide], the Times observed [1] was 3, the Times observed [2] was 4 and the Times observed ([3]; AEA-DA-modified peptide HSPA5 P20029 466-476, SEQ ID NO 52) was 8. For the same compound, the Times observed ([3]; AEA-DA-modified peptide HSPA5 P20029 635-656, SEQ ID NO 53) was 4, the Times observed [4] was 4 and the Times observed [5] was 2. For the same compound, the Times observed [6] was 2, the Times observed [7] was 2 and the Times observed [8] was 2. For the same compound, the Times observed [9] was 2, the Times observed [10] was 7 and the Times observed [11] was 2. It also gave a Times observed [12] of 4.
